This passage reports IC50 and GI50 results from patent US20230066011A1, “PYRROLOPYRIMIDINE DERIVATIVE, AND PHARMACEUTICAL COMPOSITION FOR PREVENTING OR TREATING PROTEIN KINASE-RELATED DISEASE COMPRISING SAME AS ACTIVE INGREDIENT” (VORONOI CO., LTD., priority 2019, published 2023).

Bounds are passed on as bounds.

In one assay the target is T1, human GST-DYRK1A (Homo sapiens, UniProt Q13627).
T1 construct: purified human GST-DYRK1A (full length, Thermo Scientifics) enzyme; purchased Thermo Scientifics
As to the kind of experiment: GST-DYRK1A enzyme inhibition, ADP-Glo kinase assay. Format: biochemical. To be noted: ATP 10 μM, GST-DYRK1A full length, read-out: DYRK1 IC50. The essentials: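 Full-length enzyme (10 ng) was incubated with 10 μM ATP and a specific substrate for 1 h at 25 °C in 40 mM Tris-HCl pH 7.4, 20 mM MgCl2, 0.5 mg/mL BSA, 50 μM DTT. Luminescence was read against a solvent control, and IC50 values were derived from 3 data sets.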

In a further assay the target is T2, human GST-CLK1 (Homo sapiens, UniProt P49759).
T2 construct: purified human GST-CLK1 (129-end, SignalChem) enzyme; purchased SignalChem
The experiment in a line: GST-CLK1 enzyme inhibition, ADP-Glo kinase assay. The assay is classed as biochemical. To be noted: ATP 10 μM, GST-CLK1 129-end. The essentials: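 ADP-Glo luminescence read-out, relative to untreated solvent control, gave IC50 (nM) from triplicate data sets. Reactions ran an hour at 25° C with 3 ng GST-CLK1 (residues 129-end), 10 μM ATP and specific substrate in Tris-HCl pH 7.4 buffer with MgCl2, BSA and DTT.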

The test system of another assay is MDA-MB-231 cell line. The experiment in a line: Inhibition of proliferation of MDA-MB-231 cancer cells (Cell Titer-Glo). The assay is classed as cell-based. To be noted: Homo sapiens, 72 hours. The essentials:
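A 72-hour treatment with compound (eleven final concentrations, 3-fold apart, top 10 μM) of cells seeded at 2,000 per well preceded a Cell Titer-Glo luminescence read, from which GI50 was obtained.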

The subject of another assay is SHP-77. As to the kind of experiment: Inhibition of proliferation of SHP-77 cancer cells (Cell Titer-Glo). The assay is classed as cell-based. To be noted: Homo sapiens, SHP77, 72 hours. As to the method:
To evaluate an inhibitory effect on the proliferation of cancer cells, each of an MDA-MB-231 cell line (Korean Cell Line Bank #30026) and an MDA-MB-468 cell line as triple-negative breast cancer cell lines, and SHP-77 (ATCC #CRL-2195) as a small-cell lung cancer cell line was cultured in DMEM (HyClone #SH30243) or an RPMI medium (HyClone #SH3027.01) to analyze a cell growth rate. More specifically, a cell line was plated on a 96-well flat bottom plate (Corning #3903) at a density of 2,000 cells/100 μL per well, and then treated with 11 concentrations of the Example compound, a solution of which was diluted 3-fold so that a final concentration of the compound was 10.000000, 3.333333, 1.111111, 0.370370, 0.123457, 0.041152, 0.013717, 0.004572, 0.001524, 0.000508, and 0.000169 μM. After 72 hours, each of the culture media was treated with 100 μL of Cell Titer-Glo (Promega G7573), and then cultured at room temperature for 10 minutes. Then, a degree of luminescence was measured using a microplate reader. A GI50 value was calculated from the measured degree of luminescence using Prism (Version 8.2 GraphPad) software.

In a further assay the target is LRRK2 (Homo sapiens, UniProt Q5S007). As to the kind of experiment: LRRK2 enzyme inhibition, ADP-Glo kinase assay. Format: biochemical. Further details: purchased Invitrogen PR8604B. To be noted: ATP 10 μM. The essentials: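 ADP-Glo luminescent read-out of ADP formed by purified human LRRK2 enzyme (25 ng), 10 μM ATP, 0.2 μg substrate, 25° C for 2 h, Tris-HCl pH 7.4 buffer with MgCl2, BSA, DTT. Inhibition versus untreated solvent control over twelve final concentrations (50 μM downward) gives IC50.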

A further assay deals with LRRK2 (G2019S) (Homo sapiens, UniProt Q5S007, G2019S). As to the kind of experiment: LRRK2 G2019S enzyme inhibition, ADP-Glo kinase assay. To be noted: ATP 25 μM. Format: biochemical. Further details: purchased SignalChem L10-12GG. The essentials: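 IC50 derived from luminescent ADP-Glo readout against untreated solvent control, twelve final compound concentrations from 50 μM downward. Reaction: recombinant human LRRK2 G2019S enzyme, 25 μM ATP, substrate, pH 7.4 Tris buffer with MgCl2/BSA/DTT, 25° C. for 2 hours.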
Chain of LRRK2 (G2019S) (Q5S007 970-2527 G2019S limits assumed): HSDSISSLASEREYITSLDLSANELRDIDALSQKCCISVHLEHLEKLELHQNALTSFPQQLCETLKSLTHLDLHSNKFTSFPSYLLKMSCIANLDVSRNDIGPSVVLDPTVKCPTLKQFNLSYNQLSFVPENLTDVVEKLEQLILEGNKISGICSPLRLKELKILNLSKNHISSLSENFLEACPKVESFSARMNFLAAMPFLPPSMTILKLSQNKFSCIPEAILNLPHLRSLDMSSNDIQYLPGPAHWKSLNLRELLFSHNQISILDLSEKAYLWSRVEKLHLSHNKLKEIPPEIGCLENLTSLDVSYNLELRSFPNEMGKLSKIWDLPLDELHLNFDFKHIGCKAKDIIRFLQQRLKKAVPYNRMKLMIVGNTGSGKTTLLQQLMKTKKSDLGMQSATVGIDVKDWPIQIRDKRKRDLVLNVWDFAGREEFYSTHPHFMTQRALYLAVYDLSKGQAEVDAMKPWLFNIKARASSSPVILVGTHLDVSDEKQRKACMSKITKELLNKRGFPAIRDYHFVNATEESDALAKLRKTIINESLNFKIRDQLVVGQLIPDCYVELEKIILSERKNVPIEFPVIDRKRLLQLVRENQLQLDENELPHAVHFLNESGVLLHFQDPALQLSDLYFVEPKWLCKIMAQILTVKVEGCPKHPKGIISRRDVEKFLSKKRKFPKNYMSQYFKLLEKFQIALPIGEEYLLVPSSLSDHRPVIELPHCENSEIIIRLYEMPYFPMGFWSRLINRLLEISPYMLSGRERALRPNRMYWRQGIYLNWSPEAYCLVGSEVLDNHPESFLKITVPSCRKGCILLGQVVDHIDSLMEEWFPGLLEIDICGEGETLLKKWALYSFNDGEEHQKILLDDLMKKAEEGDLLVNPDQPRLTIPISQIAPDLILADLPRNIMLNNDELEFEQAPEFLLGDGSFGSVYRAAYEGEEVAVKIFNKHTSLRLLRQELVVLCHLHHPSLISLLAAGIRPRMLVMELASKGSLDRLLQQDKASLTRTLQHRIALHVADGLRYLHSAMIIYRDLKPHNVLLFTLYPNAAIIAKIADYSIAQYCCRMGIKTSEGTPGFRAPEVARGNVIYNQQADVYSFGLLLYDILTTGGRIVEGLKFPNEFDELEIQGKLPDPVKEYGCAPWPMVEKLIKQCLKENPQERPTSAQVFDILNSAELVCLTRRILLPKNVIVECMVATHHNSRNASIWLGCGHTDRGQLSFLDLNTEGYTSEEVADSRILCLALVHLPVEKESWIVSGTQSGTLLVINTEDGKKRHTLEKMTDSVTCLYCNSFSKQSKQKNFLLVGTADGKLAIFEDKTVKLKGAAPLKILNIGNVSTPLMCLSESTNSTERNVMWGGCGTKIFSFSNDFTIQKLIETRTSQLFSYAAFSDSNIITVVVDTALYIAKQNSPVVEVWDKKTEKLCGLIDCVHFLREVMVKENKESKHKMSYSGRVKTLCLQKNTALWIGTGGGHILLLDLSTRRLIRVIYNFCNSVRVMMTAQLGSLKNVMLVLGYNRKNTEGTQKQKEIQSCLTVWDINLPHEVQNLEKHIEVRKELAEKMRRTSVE

Chain of LRRK2 (Q5S007 970-2527 limits assumed): as the sequence (Q5S007 970-2527 G2019S limits assumed) above, with S1050G counted along it
T2 sequence (P49759 129-484 limits assumed): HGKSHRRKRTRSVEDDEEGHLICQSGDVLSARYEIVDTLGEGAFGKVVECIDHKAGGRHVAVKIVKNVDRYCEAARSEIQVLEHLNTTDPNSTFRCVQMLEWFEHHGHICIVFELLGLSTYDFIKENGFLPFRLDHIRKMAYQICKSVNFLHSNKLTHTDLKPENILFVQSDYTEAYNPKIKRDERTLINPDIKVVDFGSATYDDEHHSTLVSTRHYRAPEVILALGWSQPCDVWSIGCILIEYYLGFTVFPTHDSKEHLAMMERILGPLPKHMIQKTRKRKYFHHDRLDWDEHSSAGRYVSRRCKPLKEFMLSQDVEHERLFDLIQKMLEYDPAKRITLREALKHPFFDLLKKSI

In the case of `CNc1nc(Nc2ccc(S(=O)(=O)N3CCOCC3)cc2OC)nc2[nH]cc(C#N)c12` [Example 62, 2-((2-methoxy-4-(morpholinosulfonyl)phenyl)amino)-4-(methylamino)-7H-pyrrolo[2,3-d]pyrimidine-5-carbonitrile], the IC50 at human GST-DYRK1A is 301 to 1000 nM; on human GST-CLK1 it was 301 to 1000 nM; at LRRK2 it was below 100 nM; against LRRK2 (G2019S), below 100 nM. Further, the GI50 in the assay with MDA-MB-231 cell line and in the assay with SHP-77 was 51 to 100 nM each time.

Turning to `CCNc1nc(Nc2ccc(S(=O)(=O)N3CCOCC3)cc2OC)nc2[nH]cc(C#N)c12` [Example 63, 4-(ethylamino)-2-((2-methoxy-4-(morpholinosulfonyl)phenyl)amino)-7H-pyrrolo[2,3-d]pyrimidine-5-carbonitrile], the IC50 is 301 to 1000 nM on human GST-DYRK1A, 301 to 1000 nM against human GST-CLK1, below 100 nM on LRRK2 and below 100 nM on LRRK2 (G2019S). In addition, the GI50 with MDA-MB-231 cell line and in the assay on SHP-77 was 301 to 1000 nM throughout.

On to `CCCNc1nc(Nc2ccc(S(=O)(=O)N3CCOCC3)cc2OC)nc2[nH]cc(C#N)c12` [Example 64, 2-((2-methoxy-4-(morpholinosulfonyl)phenyl)amino)-4-(propylamino)-7H-pyrrolo[2,3-d]pyrimidine-5-carbonitrile], for which the IC50 at human GST-DYRK1A was 301 to 1000 nM; at human GST-CLK1, 301 to 1000 nM; at LRRK2, below 100 nM; against LRRK2 (G2019S), below 100 nM. The GI50 in the assay with MDA-MB-231 cell line and with SHP-77 was below 50 nM in each case.

For `COCCNc1nc(Nc2ccc(S(=O)(=O)N3CCOCC3)cc2OC)nc2[nH]cc(C#N)c12` [Example 69, 2-((2-methoxy-4-(morpholinosulfonyl)phenyl)amino)-4-((2-methoxyethyl)amino)-7H-pyrrolo[2,3-d]pyrimidine-5-carbonitrile], the IC50 at human GST-DYRK1A was 301 to 1000 nM; against human GST-CLK1, 301 to 1000 nM; on LRRK2 it was below 100 nM; against LRRK2 (G2019S), below 100 nM. The GI50 in the assay with MDA-MB-231 cell line and with SHP-77 was 301 to 1000 nM in each case.

Take `COc1cc(S(=O)(=O)N2CCOCC2)ccc1Nc1nc(NC2CC2)c2c(C#N)c[nH]c2n1` [Example 70, 4-(cyclopropylamino)-2-((2-methoxy-4-(morpholinosulfonyl)phenyl)amino)-7H-pyrrolo[2,3-d]pyrimidine-5-carbonitrile]: the IC50 is 301 to 1000 nM at human GST-DYRK1A, 301 to 1000 nM on human GST-CLK1, below 100 nM on LRRK2 and below 100 nM against LRRK2 (G2019S). For the same molecule, the GI50 in the assay on MDA-MB-231 cell line and with SHP-77 was 301 to 1000 nM in each case.

As for `COc1cc(S(=O)(=O)N2CCOCC2)ccc1Nc1nc(NC2CCC2)c2c(C#N)c[nH]c2n1` [Example 71, 4-(cyclobutylamino)-2-((2-methoxy-4-(morpholinosulfonyl)phenyl)amino)-7H-pyrrolo[2,3-d]pyrimidine-5-carbonitrile], the IC50 at human GST-DYRK1A is 301 to 1000 nM; against human GST-CLK1 it was 301 to 1000 nM; against LRRK2, below 100 nM; on LRRK2 (G2019S), below 100 nM. In addition, the GI50 lay in the range of 101 to 300 nM in the assay with MDA-MB-231 cell line and 51 to 100 nM with SHP-77.

For `COc1cc(S(=O)(=O)N2CCOCC2)ccc1Nc1nc(NC2CCCC2)c2c(C#N)c[nH]c2n1` [Example 72, 4-(cyclopentylamino)-2-((2-methoxy-4-(morpholinosulfonyl)phenyl)amino)-7H-pyrrolo[2,3-d]pyrimidine-5-carbonitrile], the IC50 at human GST-DYRK1A, at human GST-CLK1, at LRRK2 and against LRRK2 (G2019S) was 301 to 1000 nM each time. The GI50 in the assay with MDA-MB-231 cell line and with SHP-77 was below 50 nM in each case.

For the molecule `COCC(C)(C)Nc1nc(Nc2ccc(S(=O)(=O)N3CCOCC3)cc2OC)nc2[nH]cc(C#N)c12` [Example 78, 4-((1-methoxy-2-methylpropan-2-yl)amino)-2-((2-methoxy-4-(morpholinosulfonyl)phenyl)amino)-7H-pyrrolo[2,3-d]pyrimidine-5-carbonitrile], the figures for the IC50 on human GST-DYRK1A, at human GST-CLK1 and at LRRK2 were 301 to 1000 nM, 301 to 1000 nM and below 100 nM, respectively. Further, the GI50 in the assay with MDA-MB-231 cell line and in the assay with SHP-77 was below 50 nM throughout.

Consider `COc1cc(S(=O)(=O)N2CCOCC2)ccc1Nc1nc(NCC2CCCC2)c2c(C#N)c[nH]c2n1` [Example 80, 4-(cyclo(pentylmethyl)amino)-2-((2-methoxy-4-(morpholinosulfonyl)phenyl)amino)-7H-pyrrolo[2,3-d]pyrimidine-5-carbonitrile], for which the IC50 on human GST-DYRK1A is 301 to 1000 nM; at human GST-CLK1, 301 to 1000 nM; on LRRK2 (G2019S), below 100 nM. Moreover, the GI50 with MDA-MB-231 cell line was in the range of 101 to 300 nM; in the assay with SHP-77 it was 51 to 100 nM.

Consider `COc1cc(S(=O)(=O)N2CCC(N3CCOCC3)CC2)ccc1Nc1nc(NCC(C)C)c2c(C#N)c[nH]c2n1` [Example 84, 4-(isobutylamino)-2-((2-methoxy-4-((4-morpholinopiperidin-1-yl)sulfonyl)phenyl)amino)-7H-pyrrolo[2,3-d]pyrimidine-5-carbonitrile], for which the IC50 at human GST-DYRK1A is 301 to 1000 nM; against human GST-CLK1 it was 301 to 1000 nM; on LRRK2 (G2019S), below 100 nM. The GI50 in the assay with MDA-MB-231 cell line and in the assay with SHP-77 was below 50 nM each time.

As to `COc1cc(S(=O)(=O)N2CCC(N3CCOCC3)CC2)ccc1Nc1nc(NCC2CC2)c2c(C#N)c[nH]c2n1` [Example 92, 4-((cyclopropylmethyl)amino)-2-((2-methoxy-4-((4-morpholinopiperidin-1-yl)sulfonyl)phenyl)amino)-7H-pyrrolo[2,3-d]pyrimidine-5-carbonitrile], the IC50 was 301 to 1000 nM on human GST-DYRK1A, 301 to 1000 nM on human GST-CLK1 and below 100 nM against LRRK2. The GI50 in the assay with MDA-MB-231 cell line and in the assay on SHP-77 was below 50 nM in each case.

As for `COCC(C)(C)Nc1nc(Nc2ccc(S(=O)(=O)N3CCC(N4CCOCC4)CC3)cc2OC)nc2[nH]cc(C#N)c12` [Example 93, 4-((1-methoxy-2-methylpropan-2-yl)amino)-2-((2-methoxy-4-((4-morpholinopiperidin-1-yl)sulfonyl)phenyl)amino)-7H-pyrrolo[2,3-d]pyrimidine-5-carbonitrile], the IC50 on human GST-DYRK1A is 301 to 1000 nM; against human GST-CLK1, 101 to 300 nM; against LRRK2, below 100 nM. The GI50 in the assay on MDA-MB-231 cell line and in the assay with SHP-77 was below 50 nM in each case.

As to `COc1cc(S(=O)(=O)N2CCOCC2)ccc1Nc1nc(NC2CCCC2)c2c(C(F)(F)F)c[nH]c2n1` [Example 186, N^4-cyclopentyl-N^2-(2-methoxy-4-(morpholinosulfonyl)phenyl)-5-(trifluoromethyl)-7H-pyrrolo[2,3-d]pyrimidine-2,4-diamine], the IC50 fell in the range of 301 to 1000 nM at human GST-DYRK1A, 301 to 1000 nM against human GST-CLK1 and 101 to 300 nM against LRRK2. Further, the GI50 with MDA-MB-231 cell line and in the assay on SHP-77 was 301 to 1000 nM each time.

For the molecule `COc1cc(S(=O)(=O)N2CCC(N3CCOCC3)CC2)ccc1Nc1nc(NC2CCCC2)c2c(C(F)(F)F)c[nH]c2n1` [Example 187, N^4-cyclopentyl-N^2-(2-methoxy-4-((4-morpholinopiperidin-1-yl)sulfonyl)phenyl)-5-(trifluoromethyl)-7H-pyrrolo[2,3-d]pyrimidine-2,4-diamine], the IC50 on human GST-DYRK1A was 301 to 1000 nM; on human GST-CLK1 it was 301 to 1000 nM; at LRRK2 it was below 100 nM. In addition, the GI50 in the assay with MDA-MB-231 cell line and in the assay on SHP-77 was 301 to 1000 nM each time.
